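Cultured in 96-well plates, cells were exposed to test compound for 48 hours across five concentrations. Here, GI50 denotes the concentration required for 50% inhibition of growth.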 The source made the active and inactive calls. Cut-off read from the data, not from the text of the source: active = GI50 up to about 1.1 µM and inactive = higher.
Legend:
Experiment in all cases: DTP human tumour cell line panel, 48 h
HT-29 = system: HT-29
TK-10 = system: TK-10
SW-620 = system: SW-620
U-251 = system: U-251
RXF 393 = system: RXF 393
HCC 2998 = system: HCC 2998
SF-268 = system: SF-268
NCI/ADR-RES = system: NCI/ADR-RES
NCI-H226 = system: NCI-H226
SK-OV-3 = system: SK-OV-3
SK-MEL-28 = system: SK-MEL-28
SNB-75 = system: SNB-75
SN12C = system: SN12C
CAKI-1 = system: CAKI-1
EKVX = system: EKVX
Hs-578T = system: Hs-578T
OVCAR-8 = system: OVCAR-8
NCI-H460 = system: NCI-H460
A498 = system: A498

Measured: GI50

O=c1[nH]c2nc3ccccc3c(=O)n2/c1=C/c1cccs1
inactive: HT-29 > 100 µM | TK-10 > 100 µM | SW-620 > 100 µM | U-251 > 100 µM | RXF 393 > 100 µM | HCC 2998 > 100 µM | SF-268 > 100 µM | NCI/ADR-RES > 100 µM | NCI-H226 > 100 µM | SK-OV-3 > 100 µM | SK-MEL-28 > 100 µM | SNB-75 20.5 µM | SN12C > 100 µM | CAKI-1 > 100 µM | EKVX > 100 µM | Hs-578T 67 µM | OVCAR-8 > 100 µM

Cc1c(Cl)c(=O)oc2cc(OCC(O)COC(C)C)ccc12 (centres undefined)
inactive: HT-29 40.2 µM | TK-10 35.2 µM | SW-620 34.4 µM | U-251 44.9 µM | HCC 2998 16.8 µM | SF-268 97.1 µM | NCI/ADR-RES 75.7 µM | SK-OV-3 > 100 µM | SK-MEL-28 > 100 µM | NCI-H460 36.1 µM | CAKI-1 > 10 µM | EKVX 37.1 µM | Hs-578T 48.4 µM | OVCAR-8 33.7 µM

Cc1[nH]c2ccccc2c1/C=N/c1ccc(Oc2ccccc2)cc1
inactive: HT-29 17.3 µM | TK-10 16.4 µM | SW-620 18 µM | U-251 15.3 µM | RXF 393 16.8 µM | SF-268 14.6 µM | A498 18.3 µM | NCI/ADR-RES 19.1 µM | SK-OV-3 17.5 µM | SK-MEL-28 18.8 µM | SNB-75 13 µM | SN12C 16.6 µM | NCI-H460 20.4 µM | CAKI-1 15.9 µM | EKVX 14.1 µM | Hs-578T 22.6 µM | OVCAR-8 18.3 µM

c1cc2c(cc1[C@@H]1OC[C@@H]3[C@H]1CO[C@H]3c1ccc3c(c1)OCO3)OCO2
inactive: HT-29 60.8 µM | TK-10 30.3 µM | SW-620 58.3 µM | U-251 60.4 µM | RXF 393 20.8 µM | HCC 2998 > 100 µM | SF-268 > 100 µM | A498 > 100 µM | NCI/ADR-RES 36.6 µM | NCI-H226 > 100 µM | SK-OV-3 > 100 µM | SK-MEL-28 > 100 µM | SNB-75 > 100 µM | SN12C > 100 µM | NCI-H460 > 100 µM | CAKI-1 30.1 µM | EKVX 29.7 µM | OVCAR-8 > 100 µM

COc1ccc(C[C@H]2COC(=O)[C@@H]2Cc2cc(OC)c(OC)c(OC)c2)cc1OC
inactive: HT-29 > 100 µM | TK-10 > 100 µM | SW-620 > 100 µM | U-251 > 100 µM | RXF 393 > 54.5 µM | HCC 2998 > 81.7 µM | SF-268 > 100 µM | NCI/ADR-RES 41.1 µM | NCI-H226 > 34.4 µM | SK-OV-3 > 100 µM | SK-MEL-28 98.2 µM | SNB-75 > 67.8 µM | SN12C > 100 µM | NCI-H460 > 100 µM | CAKI-1 > 100 µM | EKVX > 65.8 µM | Hs-578T 38 µM | OVCAR-8 50.1 µM

c1ccc(C2SCc3nc4cc5ccccc5cc4n32)cc1 (centres undefined)
inactive: HT-29 > 100 µM | TK-10 > 100 µM | SW-620 > 100 µM | U-251 > 100 µM | RXF 393 > 100 µM | HCC 2998 > 100 µM | SF-268 > 100 µM | NCI/ADR-RES > 100 µM | NCI-H226 > 100 µM | SK-OV-3 > 100 µM | SK-MEL-28 > 100 µM | SNB-75 70.1 µM | SN12C > 100 µM | CAKI-1 > 100 µM | EKVX > 100 µM | Hs-578T 60.3 µM | OVCAR-8 > 100 µM

CCOC(=O)c1nc2ccccc2nc1Nc1ccc(OC)c(OC)c1
inactive: HT-29 > 100 µM | TK-10 > 10 µM | U-251 75.7 µM | HCC 2998 > 100 µM | SF-268 27.3 µM | NCI/ADR-RES > 100 µM | SK-OV-3 > 100 µM | SK-MEL-28 > 100 µM | SNB-75 21.9 µM | SN12C > 100 µM | NCI-H460 > 100 µM | CAKI-1 > 100 µM | EKVX 18.7 µM | Hs-578T 37.7 µM

CCC(C)C(C(=O)N/N=C1/SCC(=O)N1c1ccccc1)C(=O)N/N=C1/SCC(=O)N1c1ccccc1 (centres undefined)
inactive: HT-29 > 100 µM | TK-10 > 100 µM | SW-620 41.9 µM | U-251 36.8 µM | RXF 393 16.4 µM | HCC 2998 > 100 µM | SF-268 44.9 µM | NCI/ADR-RES > 100 µM | SK-OV-3 22.2 µM | SK-MEL-28 16.9 µM | SNB-75 44.9 µM | SN12C > 100 µM | NCI-H460 > 100 µM | CAKI-1 > 100 µM | EKVX > 100 µM | Hs-578T 32.5 µM | OVCAR-8 39.7 µM

CCOP(=O)(OCC)OC1CC(n2cnc3c(N(CC)CC)ncnc32)OC1CO[Si](C)(C)C(C)(C)C (centres undefined)
inactive: HT-29 16.6 µM | TK-10 18.3 µM | SW-620 16.2 µM | U-251 15.1 µM | RXF 393 16.9 µM | HCC 2998 23.2 µM | SF-268 15.3 µM | NCI/ADR-RES 20.8 µM | NCI-H226 19.2 µM | SK-OV-3 17.5 µM | SK-MEL-28 18.5 µM | SNB-75 11.1 µM | SN12C 19.4 µM | NCI-H460 15 µM | CAKI-1 17.5 µM | EKVX 5.86 µM | Hs-578T 22 µM | OVCAR-8 21.1 µM

O=C(O)CN(CCNC(=O)OCC1c2ccccc2-c2ccccc21)CCNC(=O)OCC1c2ccccc2-c2ccccc21
inactive: HT-29 17.5 µM | TK-10 29.1 µM | SW-620 21.2 µM | U-251 20.1 µM | RXF 393 36.1 µM | HCC 2998 35.6 µM | SF-268 19 µM | NCI/ADR-RES 45.2 µM | NCI-H226 33.3 µM | SK-OV-3 32.2 µM | SK-MEL-28 25 µM | SNB-75 29.6 µM | SN12C 25 µM | NCI-H460 19.2 µM | EKVX 23.7 µM | Hs-578T 43.9 µM | OVCAR-8 20.1 µM

O=C(O)c1ccc(-c2nc3cc(Cl)ccc3[nH]2)cc1
inactive: HT-29 > 100 µM | SW-620 > 100 µM | U-251 > 100 µM | RXF 393 > 100 µM | HCC 2998 > 100 µM | NCI/ADR-RES > 100 µM | NCI-H226 > 100 µM | SK-OV-3 > 100 µM | SNB-75 > 100 µM | SN12C > 100 µM | CAKI-1 > 100 µM | EKVX > 100 µM | Hs-578T > 100 µM | OVCAR-8 > 100 µM

CC(C)(C)OC(=O)CC(NC(=O)OC(C)(C)C)C(=O)N[C@@H]1CCCC[C@H]1C(=O)OCc1ccccc1 (some centres undefined)
inactive: HT-29 17.2 µM | TK-10 17.8 µM | SW-620 37.5 µM | U-251 19.5 µM | RXF 393 > 100 µM | HCC 2998 20.6 µM | SF-268 77.3 µM | NCI/ADR-RES 33.3 µM | NCI-H226 26.4 µM | SK-OV-3 19.2 µM | SK-MEL-28 > 100 µM | SNB-75 23.1 µM | SN12C 18.2 µM | NCI-H460 29.6 µM | CAKI-1 38.4 µM | EKVX 62.2 µM | Hs-578T 15.7 µM | OVCAR-8 28.8 µM

From ChEMBL document CHEMBL1201862, “PubChem BioAssay data set” (2004)
